In article PMC5640650, “NatD promotes lung cancer progression by preventing histone H4 serine phosphorylation to activate Slug expression” (Nature Communications, 2017):

How the values were obtained:
LLC cells [1] = assay: Tail vein injection in C57BL/6 mice, LLC cells; format: in vivo, murine; conditions: 30 days, n = 5, vs Scr
Description: All animal care and handling procedures were performed in accordance with the National Institutes of Health Guide for the Care and Use of Laboratory Animals, and were approved by the Institutional Review Board of Nanjing University (Nanjing, China). Female SCID mice and C57BL/6 mice (6–8 week old) were purchased from the Model Animal Research Center of Nanjing University (Nanjing, China), and were maintained under specific pathogen-free conditions at Nanjing University. The sample size was chosen with adequate power on the basis of the literature and our previous experience[46] and for each experiment it is indicated in the figure legend. […] Lung nodules and progression were monitored and quantified using the bioluminescence system (Caliper IVIS Lumina XR) or by counting under a dissecting microscope. […] Mice were killed at day 28 or day 30 to collect lungs, and lung nodules in serial sections were quantified microscopically. […] Lung nodules and progression were monitored and quantified using the bioluminescence system (Caliper IVIS Lumina XR). Mice were killed at day 14 or day 21 to collect lungs, and lung nodules in serial sections were quantified microscopically. […]
(§1) Representative blots from three independent experiments. […] (bottom) Cell migration and invasion expressed as a percentage of Scr control. […]

LLC cells [2] = assay: Orthotopic implantation in C57BL/6 mice, LLC cells; format: in vivo, murine; conditions: pleural cavity, 14 days, n = 5, vs Scr
Description: All animal care and handling procedures were performed in accordance with the National Institutes of Health Guide for the Care and Use of Laboratory Animals, and were approved by the Institutional Review Board of Nanjing University (Nanjing, China). Female SCID mice and C57BL/6 mice (6–8 week old) were purchased from the Model Animal Research Center of Nanjing University (Nanjing, China), and were maintained under specific pathogen-free conditions at Nanjing University. The sample size was chosen with adequate power on the basis of the literature and our previous experience[46] and for each experiment it is indicated in the figure legend. Prior to carrying out the experiment, mice were randomly assigned to two different treatment groups (NatD-KD or Scr). For xenograft studies, 1 × 10^6 cells were resuspended in 100 µl PBS and injected into the lateral tail vein. Lung nodules and progression were monitored and quantified using the bioluminescence system (Caliper IVIS Lumina XR) or by counting under a dissecting microscope. […] Mice were killed at day 28 or day 30 to collect lungs, and lung nodules in serial sections were quantified microscopically. […] Lung nodules and progression were monitored and quantified using the bioluminescence system (Caliper IVIS Lumina XR). Mice were killed at day 14 or day 21 to collect lungs, and lung nodules in serial sections were quantified microscopically. […]

LLC cells [3] = assay: Expression of EMT genes, LLC cells; format: cell-based, murine; conditions: vs Scr
Description: Cellular proteins were extracted by RIPA lysis buffer at high salt concentration (420 mM NaCl), and western blot analysis was performed in accordance with standard protocols. Scans of enhanced chemiluminescence (ECL) films showing uncropped blots are presented in Supplementary Fig. 10. […]
Total RNA from tissue samples and cultured cells was extracted using TRIzol reagent (Invitrogen). cDNAs were synthesized with a HiScript 1st Strand cDNA Synthesis Kit (Vazyme Biotech, China). Quantitative RT-PCR was performed using a FastStart Universal SYBR Green Master (Roche) according to the manufacturer’s instructions in a Rotor-Gene 6000 (Corbett Research) in a final volume of 20 μl. […]
as §1
Results are shown as mean ± s.d. from 5 mice; two-tailed Student’s t-test, **P<0.01 compared to Scr control. (e) Quantitative real-time PCR analysis of mRNA levels of NatD and key EMT-related genes in Scr control and NatD-KD LLC cells normalized to GAPDH. […]

NatD-KD2: Human NatD shRNA KD2: 5′-GGTTGAATGTCTCCATTGA-3′, lentiviral (shRNA lentiviral)
number of tumor nodules (LLC cells [1]): significantly fewer tumor nodules | migration and invasion, orthotopic model (LLC cells [2]): significantly reduced | expression of E-cadherin (LLC cells [3]): increased the expression | expression of Slug, N-cadherin, and Vimentin (LLC cells [3]): decreased the expression
